Results taken from USRE48461E1, “Modulation of androgen receptor expression” (Ionis Pharmaceuticals, Inc., priority 2012, dated 2021).
Like-named read-outs stand apart in the source and are kept apart here.

What was measured:
AR mRNA = test: AR RNA expression in C4-2 cells (complete, CSS+DHT medium); assay type: cell-based, human; conditions: 48 hrs; for Percent expression of AR / AR expression: C4-2 cells; for Percent expression of AR: CSS + DHT medium
Description: Cells were plated at 1,000 cells per well. […] After an incubation period of 48 hrs, RNA levels of AR, PSA and TMPRSS2 were measured.
Cells were plated at 2,000 cells per well and cultured in CSS media with 1 nM DHT. […] After an incubation period of 48 hrs, RNA levels of AR, PSA and TMPRSS2 were measured.

testosterone = test: Serum testosterone levels in cynomolgus monkeys (ELISA); assay type: in vivo; conditions: cynomolgus monkey, 40 mg/kg subcutaneously, 40 mg/kg
Description: Serum testosterone protein levels were measured in the plasma with an ELISA kit (Enzo Life Sciences), following the manufacturer's instructions.

[1] = cynomolgus monkey, in vivo, sc, 40 mg/kg
[2] = cynomolgus monkey, in vivo
Description: (§1) Prior to the study, the monkeys were kept in quarantine for a 30-day period, during which the animals were observed daily for general health. The monkeys were 2-4 years old and weighed between 2 and 4 kg. Thirteen groups of four randomly assigned male cynomolgus monkeys each were injected subcutaneously with ISIS oligonucleotide or PBS. PBS solution or ISIS oligonucleotides, at a dose of 40 mg/kg, were administered with a loading regimen consisting of four doses on the first week of the study (days 1, 3, 5, and 7), followed by a maintenance regimen consisting of once weekly administration starting on Day 14 (weeks 2 to 6). Subcutaneous injections were performed in clock-wise rotations at 4 sites on the back; one site per dose. The injection sites were delineated by tattoo, while sedated using ketamine, and were separated by a minimum of 3 cm.
The concentrations of the full-length oligonucleotide in the kidney and the liver of select treatment groups were measured. The method used is a modification of previously published methods (Leeds et al., 1996; Geary et al., 1999) which consist of a phenol-chloroform (liquid-liquid) extraction followed by a solid phase extraction.

full-length AR = test: Western blot of full-length AR in C4-2B cells (time course); assay type: cell-based, human; conditions: 24 hours and 48 hours, normalized to GAPDH
Description: Protein levels in the cells were also analyzed. The cells were harvested in RIPA buffer containing protease inhibitors. The presence of bands for full-length AR was detected by western blot using AR antibody (N-20, SC-816, Santa Cruz Biotechnology).

[3] = cynomolgus monkey, in vivo, sc, 40 mg/kg; remark: listed apart in the source
Description: as §1
To evaluate any effect of ISIS oligonucleotides in cynomolgus monkeys on hematologic parameters, blood samples of approximately 0.5 mL of blood was collected day 44 from each of the available study animals in tubes containing K2-EDTA. Samples were analyzed for red blood cell (RBC) count, white blood cells (WBC) count, platelet count, hemoglobin content and hematocrit, using an ADVIA2120i hematology analyzer (SIEMENS, USA).

[4] = cynomolgus monkey, in vivo, sc, 40 mg/kg; remark: listed apart in the source
Description: as §1
To evaluate the effect of ISIS oligonucleotides on hepatic function, the monkeys were fasted overnight. Approximately, 1.5 mL of blood samples were collected on day 44 from all the study groups. Blood was collected in tubes without anticoagulant for serum separation. The tubes were kept at room temperature for a minimum of 90 min and then centrifuged at 3,000 rpm for 10 min. Levels of various liver function markers were measured using a Toshiba 120FR NEO chemistry analyzer (Toshiba Co., Japan).

[5] = cynomolgus monkey, in vivo, sc, 40 mg/kg; remark: listed apart in the source
C4-2B cells = test: C4-2B cell proliferation, ASO in combination with MDV3100 (Example 19); assay type: cell-based, human; conditions: Homo sapiens, PBS (no ASO) + MDV3100 1 μM, read-out: Percent inhibition of C4-2B cell proliferation
Description: C4-2B cells were plated at 1,500 cells per well. […] ISIS 347526 was included as a negative control. […] After a treatment period of 6 days, the proliferative capacity of the cancer cells was measured with CellTiter 96® AQueous One Solution Cell Proliferation kit (Promega), following the manufacturer's instructions. Results are presented in Table 46 as percent inhibition of proliferation, relative to non-treated cells. Treatment of the cells with ISIS 549372 or ISIS 549458 reduced proliferation of the cells more extensively than treatment with ISIS 554221.

Compound	Percent expression of AR (AR mRNA; 0.04 μM) [%]	Percent expression of AR (AR mRNA; 0.2 μM) [%]	Percent expression of AR (AR mRNA; 1 μM) [%]	Percent expression of AR (AR mRNA; 5.0 μM) [%]	Percent expression of AR in C4-2 cells cultured in complete medium (AR mRNA; complete medium, 0.04 μM) [%]	Percent expression of AR in C4-2 cells cultured in complete medium (AR mRNA; complete medium, 0.2 μM) [%]	Percent expression of AR in C4-2 cells cultured in complete medium (AR mRNA; complete medium, 1 μM) [%]	Percent expression of AR in C4-2 cells cultured in complete medium (AR mRNA; complete medium, 5.0 μM) [%]	Serum testosterone level (testosterone) [ng/mL]	Body Wt [1] [kg]	Heart weight [1] [g]	Kidney weight [1] [g]	Liver weight [1] [g]	Mesenteric lymph nodes weight [1] [g]	Spleen weight [1] [g]	Oligonucleotide concentration, Liver ([2]; sc, 40 mg/kg) [μg/g tissue]	full-length AR protein (western blot) (full-length AR)	HCT [3] [%]	Hemoglobin [3] [g/dL]	Platelets [3] [µL]	also measured
TTGATTTAATGGTTGC [ISIS 560131] (MOE and (S)-cEt gapmer chemistry, further chemistry not given here)	88	57	20	15	48	13	8	8	14.7	2.4	9.8	12	58	2.0	2.5	793	significantly reduced	44	13.1	392000	K/L ratio [2]: 2.6; RBC [3]: 5.8e+06 µL; WBC [3]: 11300 µL; ALT [4]: 68 IU/L; AST [4]: 87 IU/L; Albumin [4]: 4.0 g/dL; Plasma BUN [5]: 23.7 mg/dL; Plasma Creatinine [5]: 0.84 mg/dL
CNC(=O)c1ccc(N2C(=S)N(c3ccc(C#N)c(C(F)(F)F)c3)C(=O)C2(C)C)cc1F [MDV3100, 4-(3-(4-cyano-3-(trifluoromethyl)phenyl)-5,5-dimethyl-4-oxo-2-thioxoimidazolidin-1-yl)-2-fluoro-N-methylbenzamide, reference compound]	101	109			95	99	132	137													AR expression (AR mRNA; CSS+DHT medium): increased AR expression in the cells; AR expression (AR mRNA; complete medium): increased AR expression in the cells; inhibition at 1 µM (C4-2B cells; Table 46): 38%; inhibition at 1 µM (C4-2B cells; Table 47): 46%
TGATTTAATGGTTGCA [ISIS 569236] (cEt/MOE gapmer chemistry, further chemistry not given here)	89	82	52	23	72	27	11	9	12.7	2.4	8.4	12	56	2.4	3.2	898	significantly reduced	44	13.1	358000	Oligonucleotide concentration, Kidney ([2]; sc, 40 mg/kg): 1282 μg/g tissue; RBC [3]: 5.7e+06 µL; WBC [3]: 14400 µL; ALT [4]: 35 IU/L; AST [4]: 45 IU/L; Albumin [4]: 4.1 g/dL; Plasma BUN [5]: 24.9 mg/dL; Plasma Creatinine [5]: 0.87 mg/dL
